Results: US20250032454A1, “KDM1A INHIBITORS FOR THE TREATMENT OF DISEASE” (Imago Biosciences, Inc., priority 2021, published 2025)
Read-outs that look alike come from different tables or passages of the source.

Tests used:
MV4;11 cells = assay: Cell Titer-Glo cell growth inhibition in MV4;11 cell line (Day 5 / Day 10); type: cell-based; conditions: Homo sapiens
Procedure: Cell growth inhibition against MV4;11 cells was confirmed for the synthetic compounds. The Cell Titer-Glo Luminescent Cell Viability Assay (Promega, USA) was used to determine the number of viable cells in culture based on quantitation of the ATP present, which signals the presence of metabolically active cells. This assay was run in a 96-well plate format arrayed in a 10-point dose curve, ranging from 0 to 50 µM with 4-fold dilutions for each compound. Cells are seeded on Day 0 at 3750 cells per well. At Day 5, a portion of each well is assayed for viability according to the Cell Titer-Glo protocol. Briefly, cells/plates were centrifuged at 1100×g for 5 minutes. 100 μL of media was removed from each well and replaced with 100 μL of CellTiter-Glo. The plates were shaken at room temperature for 10 minutes and measured on a luminescence plate reader. Another portion of each well from the Day 5 plate is used to seed a new 96 plate containing fresh compound and media set up in the equivalent 10-point dose curve array in order to continue the cell growth inhibition assay for another 5 days. A final timepoint is collected at Day 10 using the Cell Titer-Glo protocol. Luminescence was detected on an En Vision® Multilabel Plate Reader (Perkin Elmer, Waltham, Mass.) and IC50 determination was made using Graph Pad Prism software.

LSD1 = LSD1 (Homo sapiens, UniProt O60341); assay: LSD1 fluorescence coupling enzyme assay (HRP/Amplex Red, H3(1-21)K4me2 peptide), 10-dose IC50; type: biochemical; conditions: 10 μM histone H3(1-21)K4me2 peptide substrate, 3-fold serial dilution from 100 μM
Text: Assaying the inhibition of KDM1A can be determined in vitro, in cultured cells, and in animals. There are a variety of spectrophotometric methods to detect the results of demethylation of methylated lysines, viz., detecting the products of KDM1A demethylase oxidative activity on a peptide fragment of at least 18 amino acids representing the N-terminus of the histone H3 substrate that contains a monomethyl at the fourth lysine residue. Hydrogen peroxide, one product of the KDM1A demethylase reaction, reacts with horseradish peroxidase and dihydroxyphenoxazine (ADHP) to produce the fluorescent compound resorufin (excitation=530-560 nm: emission=590 nm). The KDM1A demethylase enzyme activity can be obtained from mammalian cells or tissues expressing KDM1A from an endogenous or recombinant gene and purified or assayed from a whole cell extract. These methods can be used to determine the concentration of the disclosed compounds can inhibit fifty percent of the enzyme activity (IC50).
Alternatively, the production of H2O2 during the KDM1A reaction can be detected fluometrically. In this system, the production of H2O2 is detected in the HDM assay buffer after exposure to substrate, co-factor and enzyme using ADHP (10-Acetyl-3, 7-dihydroxyphenoxazine) as a fluorogenic substrate for horse radish peroxidase (HRP). […] The florescent product is resorufin. Sensitivity can be as low as 10-15 M of target protein. The signal is read using a fluorescence microplate reader at excitation and emission wavelengths of 530-560 nm and 590 nm, respectively.
Compounds were tested in a 10-dose IC50 mode fluorescence coupling enzyme assay with 3-fold serial dilution in duplicate starting at 100 μM. The production of FAD-dependent H2O2 as a result of demethylase activity of LSD1 on 10 μM histone H3(1-21)K4me2 peptide substrate was measured by coupling with HRP and Amplex Red to yield resorufin (fluorescence measured at Ex/Em=535/590 nm on EnVision, Perkin Elmer).

| Compound | IC50 (LSD1) [nM] | other results |
| --- | --- | --- |
| N#Cc1ccc(-c2cc(NCC3CCC[C@H](N)C3)nn2-c2ccc3nn(-c4ccncc4)cc3c2)cc1F (stereo partly drawn) [Example 75, 4-(3-((((15,3S)-3-aminocyclohexyl)methyl)amino)-1-(2-(pyridin-4-yl)-2H-indazol-5-yl)-1H-pyrazol-5-yl)-2-fluorobenzonitrile] |  | IC50 (MV4;11 cells; MV4-11, 120 h, Day 5, read-out: Cell Titer-Glo IC50 (5 d)): 500 to 1000 nM; IC50 (MV4;11 cells; MV4-11, 240 h, Day 10, read-out: Cell Titer-Glo IC50 (10 d)): < 500 nM |
| N#Cc1ccc(-c2cc(NC[C@H]3CCC[C@H](N)C3)nn2-c2ccc(N3CCOCC3)cc2)cc1F [Example 96, 4-(3-((((1S,3S)-3-aminocyclohexyl)methyl)amino)-1-(4-morpholinophenyl)-1H-pyrazol-5-yl)-2-fluorobenzonitrile 2,2,2-trifluoroacetate] | < 500 |  |
| COC1(C)CCN(c2ccc(-n3nc(NC[C@H]4CCC[C@H](N)C4)cc3-c3ccc(C#N)c(F)c3)cc2)CC1 [Example 102, 4-(3-((((1S,3S)-3-aminocyclohexyl)methyl)amino)-1-(4-(4-methoxy-4-methylpiperidin-1-yl)phenyl)-1H-pyrazol-5-yl)-2-fluorobenzonitrile 2,2,2-trifluoroacetate] | < 500 |  |
| CC(C)OC1CCN(c2ccc(-n3nc(NC[C@H]4CCC[C@H](N)C4)cc3-c3ccc(C#N)c(F)c3)cc2)CC1 [Example 94, 4-(3-((((1S,3S)-3-aminocyclohexyl)methyl)amino)-1-(4-(4-isopropoxypiperidin-1-yl)phenyl)-1H-pyrazol-5-yl)-2-fluorobenzonitrile 2,2,2-trifluoroacetate] | < 500 |  |
| N#Cc1ccc(-c2cc(NC[C@H]3CCC[C@H](N)C3)nn2-c2ccc3c(c2)NCCO3)cc1F [Example 119, 4-(3-((((1S,3S)-3-aminocyclohexyl)methyl)amino)-1-(3,4-dihydro-2H-benzo[b][1,4]oxazin-6-yl)-1H-pyrazol-5-yl)-2-fluorobenzonitrile 2,2,2-trifluoroacetate] | < 500 |  |
| COc1cc(N2CCS(=O)(=O)CC2)ccc1-n1nc(NC[C@@H]2CCCNCC2)cc1-c1ccc(C#N)c(F)c1 [Example 113, (R)-4-(3-((azepan-4-ylmethyl)amino)-1-(4-(1,1-dioxidothiomorpholino)-2-methoxyphenyl)-1H-pyrazol-5-yl)-2-fluorobenzonitrile 2,2,2-trifluoroacetate] | < 500 |  |
| COC1CCN(c2ccc(-n3nc(NCC45CCN(CC4)CC5)cc3-c3ccc(C#N)c(F)c3)cc2)CC1 [Example 124, 2-Fluoro-4-(1-(4-(4-methoxypiperidin-1-yl)phenyl)-3-((quinuclidin-4-ylmethyl)amino)-1H-pyrazol-5-yl)benzo-nitrile 2,2,2-trifluoroacetate] | < 500 |  |
| CC(C)Oc1cc(N2CCS(=O)(=O)CC2)ccc1-n1nc(NCC23CCN(CC2)CC3)cc1-c1ccc(C#N)c(F)c1 [Example 122, 4-(1-(4-(1,1-Dioxidothiomorpholino)-2-isopropoxyphenyl)-3-((quinuclidin-4-ylmethyl)amino)-1H-pyrazol-5-yl)-2-fluorobenzonitrile 2,2,2-trifluoroacetate] | 1000 to 10000 |  |
| COc1ccc(-n2nc(NC[C@@H]3CCC[C@H](CN)C3)cc2-c2ccc(C#N)c(F)c2)cc1 [Example 79, 4-(3-((((1R,3S)-3-(aminomethyl)cyclohexyl)methyl)amino)-1-(4-methoxyphenyl)-1H-pyrazol-5-yl)-2-fluorobenzonitrile] | 1000 to 10000 |  |
| CC1(O)CCN(c2ccc(-n3nc(NC[C@H]4CCC[C@H](N)C4)cc3-c3ccc(C#N)c(F)c3)c(F)c2)CC1 [Example 116, 4-(3-((((1S,3S)-3-aminocyclohexyl)methyl)amino)-1-(2-fluoro-4-(4-hydroxy-4-methylpiperidin-1-yl)phenyl)-1H-pyrazol-5-yl)-2-fluorobenzonitrile 2,2,2-trifluoroacetate] | < 500 |  |
| CN1CCN(c2ccc(-n3nc(NC[C@H]4CCC[C@H](N)C4)cc3-c3ccc(C#N)c(F)c3)cc2)CC1=O [Example 105, 4-(3-((((1S,3S)-3-aminocyclohexyl)methyl)amino)-1-(4-(4-methyl-3-oxopiperazin-1-yl)phenyl)-1H-pyrazol-5-yl)-2-fluorobenzonitrile] | 1000 to 10000 |  |
| COC1CCN(c2ccc(-n3nc(NC[C@H]4CCC[C@H](NC(=N)N)C4)cc3-c3ccc(C#N)c(F)c3)cc2)CC1 [Example 128, 1-((1S,3S)-3-(((5-(4-cyano-3-fluorophenyl)-1-(4-(4-methoxypiperidin-1-yl)phenyl)-1H-pyrazol-3-yl)amino)methyl)cyclohexyl)guanidine] | < 500 |  |

Now from value to molecule, other results behind:

| IC50 (LSD1) [nM] | Compound | other results |
| --- | --- | --- |
| < 500 | N#Cc1ccc(-c2cc(NCC3CCCNCC3)nn2-c2ccc(N3CCS(=O)(=O)CC3)c(F)c2)cc1F (stereo not shown) [Example 110, 4-(3-((azepan-4-ylmethyl)amino)-1-(4-(1,1-dioxidothiomorpholino)-3-fluorophenyl)-1H-pyrazol-5-yl)-2-fluorobenzonitrile 2,2,2-trifluoroacetate] |  |
| < 500 | COC1CCN(c2ccc(-n3nc(NC[C@H]4CCC[C@H](N)C4)cc3-c3ccc(C#N)c(F)c3)c(F)c2)CC1 [Example 92, 4-(3-((((1S,3S)-3-aminocyclohexyl)methyl)amino)-1-(2-fluoro-4-(4-methoxypiperidin-1-yl)phenyl)-1H-pyrazol-5-yl)-2-fluorobenzonitrile 2,2,2-trifluoroacetate] |  |
| 500 to 1000 | COc1ccc(-n2nc(NC[C@H]3CCC[C@H](CN)C3)cc2-c2ccc(C#N)c(F)c2)cc1 [Example 80, 4-(3-((((15,3S)-3-(aminomethyl)cyclohexyl)methyl)amino)-1-(4-methoxyphenyl)-1H-pyrazol-5-yl)-2-fluorobenzonitrile] |  |
| < 500 | CCOC1CCN(c2ccc(-n3nc(NC[C@H]4CCC[C@H](N)C4)cc3-c3ccc(C#N)c(F)c3)cc2)CC1 [Example 97, 4-(3-((((1S,3S)-3-aminocyclohexyl)methyl)amino)-1-(4-(4-ethoxypiperidin-1-yl)phenyl)-1H-pyrazol-5-yl)-2-fluorobenzonitrile 2,2,2-trifluoroacetate] |  |
| < 500 | CN1CCN(c2ccc(-n3nc(NC[C@H]4CCC[C@H](NC(=N)N)C4)cc3-c3ccc(C#N)c(F)c3)cc2)CC1 [Example 127, 1-((1S,3S)-3-(((5-(4-cyano-3-fluorophenyl)-1-(4-(4-methylpiperazin-1-yl)phenyl)-1H-pyrazol-3-yl)amino)methyl)cyclohexyl)guanidine 2,2,2-trifluoroacetate] |  |
| < 500 | COc1cc(N2CCN(C)C(=O)C2)ccc1-n1nc(NC[C@H]2CCC[C@H](N)C2)cc1-c1ccc(C#N)c(F)c1 [Example 117, 4-(3-((((1S,3S)-3-aminocyclohexyl)methyl)amino)-1-(2-methoxy-4-(4-methyl-3-oxopiperazin-1-yl)phenyl)-1H-pyrazol-5-yl)-2-fluorobenzonitrile] |  |
| < 500 | N#Cc1ccc(-c2cc(NC[C@H]3CCC[C@H](N)C3)nn2-c2ccc(N3CCSCC3)cc2)cc1F [Example 99, 4-(3-((((1S,3S)-3-aminocyclohexyl)methyl)amino)-1-(4-thiomorpholinophenyl)-1H-pyrazol-5-yl)-2-fluorobenzonitrile] |  |
| < 500 | CC1(O)CCN(c2ccc(-n3nc(NC[C@H]4CCC[C@H](N)C4)cc3-c3ccc(C#N)c(F)c3)cc2)CC1 [Example 101, 4-(3-((((1S,3S)-3-aminocyclohexyl)methyl)amino)-1-(4-(4-hydroxy-4-methylpiperidin-1-yl)phenyl)-1H-pyrazol-5-yl)-2-fluorobenzonitrile 2,2,2-trifluoroacetate] |  |
| < 500 | N#Cc1ccc(-c2cc(NC[C@H]3CCC[C@H](N)C3)nn2-c2ccc(N3CCC(C#N)CC3)cc2)cc1F [Example 103, 1-(4-(3-((((1S,3S)-3-aminocyclohexyl)methyl)amino)-5-(4-cyano-3-fluorophenyl)-1H-pyrazol-1-yl)phenyl)piperidine-4-carbonitrile 2,2,2-trifluoroacetate] |  |
